Measured values from patent US9889104B2, “Agent for treating diabetes” (NISHIZAKI BIOINFORMATION RESEARCH INSTITUTE, priority 2014, dated 2018).

Experiments:
[1] = test system: type 2 diabetes model mouse (C57BL/KsJ-lepr^db/lepr^db mouse); experiment: Oral glucose tolerance test in type 2 diabetes model mouse; type: in vivo; conditions: DCP-LA 0.001, 0.01, 0.1 mg/kg orally 30 min before glucose 2 g/kg, 0-90 min, FIG. 3B
Experimental: As type 2 diabetes model mouse, C57BL/KsJ-lepr^db/lepr^db mouse (female, 8-week-old) (CLEA Japan; Tokyo, Japan) was used.
(§1) OGTT was performed using the mouse starved for 12 hr. Glucose (2 g/ml/kg body weight) was administered by gavage, and the time point thereof was taken as 0 h. DCP-LA (0, 0.001, 0.01, 0.1 mg/kg) was orally administered 30 min before administration of glucose. The blood (10 μl) was collected from the tail vein at the time points of 0, 30, 60, and 90 min, and each plasma sample which was labeled with ABEE and prepared from the obtained blood was loaded on high performance liquid chromatography (HPLC) system (LC-10ATvp; Shimadzu Co., Kyoto, Japan). The glucose concentration was calculated from a peak area/concentration analytical curve prepared using the standard glucose solution.

[2] = test system: type 1 diabetes model mouse (STZ-treated C57BL/6J mouse); experiment: Oral glucose tolerance test in type 1 diabetes model mouse; type: in vivo; conditions: DCP-LA 0.001, 0.01, 0.1 mg/kg orally 30 min before glucose 2 g/kg, 0-90 min, FIG. 3A
Experimental: Type 1 diabetes model mouse was prepared by intraperitoneal administration of streptozotocin (STZ; 250 mg/kg) to C57BL/6J mouse (8-week-old) (Japan SLC Inc.; Shizuoka, Japan). After 4 days from the STZ administration, an oral glucose tolerance test (OGTT) was performed.
as §1

GLUT4 = GLUT4 mobilization monitoring (Western blotting with anti-c-myc antibody); type: cell-based; conditions: 100 nM DCP-LA, 20 min; c-myc signal in cellular membrane fraction/total cell; FIG. 2
Experimental: (§2) 3T3L1-GLUT4myc fibroblast strain expressing GLUT4myc was used. The cells are constructed by inserting human c-MYC epitope (14 amino acids) into the first ectodomain. It is possible to track transport of GLUT4 onto cell membrane surface by using an antic-myc antibody.
The cells were cultured in Dulbecco's Modified Eagles Medium (DMEM) added with 10% (v/v) bovine serum, penicillin (final concentration, 100 U/ml) and streptomycin (final concentration, 0.1 mg/ml) in a humid environment under 5% CO2 and 95% air at 37° C. When the cells reached confluence (day 0), the medium was exchanged with DMEM added with 10% (v/v) fetal bovine serum (FBS), 1 μM dexamethasone, 0.5 mM 3-isobutyl-methyl-xanthine and 0.1 mg/ml insulin to allow for differentiation from fibroblast into adipocyte. The medium was exchanged with DMEM added with 10% (v/v) FBS on day 3, day 7 and day 11. On day 14, the cell differentiated into adipocyte were used for the experiment. […]
The protein concentration of each fraction was measured using BCA protein assay kit (Thermo Fisher Scientific, Waltham, Mass., USA). […] The immunoreactivity was detected using ECL kit (Invitrogen), and visualized using a chemical luminescence detection system (chemiluminescence detection system; GE Healthcare, Piscataway, N.J., USA). The signal density was measured using an image analysis software (Image Gauge software; GE Healthcare). […]

[3] = test system: 3T3L1-GLUT4myc adipocytes; experiment: Glucose uptake assay in 3T3L1-GLUT4myc adipocytes; type: cell-based; conditions: 2 hr
Experimental: as §2
The cells were cultured in Dulbecco's Modified Eagles Medium (DMEM) added with 10% (v/v) bovine serum, penicillin (final concentration, 100 U/ml) and streptomycin (final concentration, 0.1 mg/ml) in a humid environment under 5% CO2 and 95% air at 37° C. […]
3T3L1-GLUT4myc adipocytes were incubated in Krebs-Ringer-HEPES buffer [136 mM NaCl, 4.7 mM KCl, 1.25 mM CaCl2, 1.25 mM MgSO4 and 20 mM HEPES, pH 7.5] containing 0.2% (w/v) bovine serum albumin (BSA) and added with 10 mM glucose at 37° C. for […]. […] ABEE-labeled glucose was detected using a fluorescence detector at an excitation wavelength 305 nm and a fluorescence wavelength 360 nm. The amount of glucose uptaken into the cells after incubation for 2 hr is calculated by subtracting the extracellular glucose concentration from the initial extracellular glucose concentration (10 mM).
3T3L1-GLUT4myc adipocytes were incubated in glucose-containing (10 mM) PBS in the presence or absence of a given concentration of DCP-LA for 2 hr, and extracellular glucose concentration was measured by HPLC. […]

In the case of `CCCCCC1CC1CC1CC1CCCCCCCC(=O)O` (centres unmarked) [DCP-LA, 8-[2-(2-pentyl-cyclopropylmethyl)-cyclopropyl]-octanoic acid], the blood glucose level [1] is reported as “dose-dependently lower the blood glucose level”, the blood glucose level [2] is reported as “dose-dependently lower the blood glucose level” and the “transport of GLUT4 onto the cellular membrane” value (GLUT4) is reported as “not promoted significantly”. For the same molecule, the “sugar uptake promoting action in the presence of PKCε inhibitor GF109203X” value ([3]; 0.1 μM DCP-LA with 0.1 μM GF109203X, FIG. 1B) was “not inhibited” and the “glucose uptake into the cells” value ([3]; 3T3L1-GLUT4myc adipocytes, 10 mM glucose PBS, given concentrations of DCP-LA, HPLC, FIG. 1A) was “promote sugar uptake into the adipocytes in a bell-shaped concentration-dependent manner”.
